In patent US20240018136A1, “CDK Inhibitors And Their Use As Pharmaceuticals” (Prelude Therapeutics, Incorporated, priority 2022, published 2024) one finds IC50 data, which are given here for 17 compounds.

The term IC50 denotes the point on the concentration scale where inhibition reaches its midpoint.

One test concerns the target T1, CDK4/Cyclin D1 (Homo sapiens, UniProt P11802).
T1 construct: purchased ProQinase; host or cells: insect cell
Nature of the test: CDK4/CyclinD1 enzymatic activity assay (TR-FRET). It is filed as biochemical. The settings on record: ATP 2 mM final, read-out: CDK4_D1 IC50. Here is the method: CDK4/CyclinD1 Enzymatic Activity Assay
(§1) The inhibitory activity of compounds was evaluated in vitro using TR-FRET assay with white 384-well low volume microplate (Greiner Bio-One). CDK4/Cyclin D1 catalyzed phosphorylation of peptide in the presence and absence of compounds was measured and used in IC5 determination. Recombinant protein complex CDK4/Cyclin D1, expressed from insect cell, was purchased from ProQinase. Testing compounds were dissolved in DMSO at 1 mM and tested in 9-dose IC50 mode. The reaction mixture was prepared by mixing CDK4/CyclinD1 (1 nM final), ULight-4E-BP1 (100 nM final, Perkinelmer, TRF0128-D), and ATP (2 mM final) in assay buffer (20 mM of HEPES pH 7.4, 1 mM of EGTA, 0.05% BSA, 0.005% Tween 20, and 1 mM TCEP). The compound of interest in DMSO was added to each well in 3-fold serial dilution by dispenser (TECAN D300E) to make a 9.9 μL of reaction mixture. After 20 minutes preincubation at room temperature, 0.1 μL MgCl2 (10 mM final) was added to initiate the reaction. Following a 45 minute incubation at 37° C., the reaction was stopped by addition of 2 μL of quenching buffer consisting of Lance detection buffer (Perkinelmer CR97-100C), LANCE Ultra Europium-anti-P-4E-BP1 (Perkinelmer, TRF0216-D), EDTA, and incubate at room temperature for an additional 60 minutes in the dark. The reaction signal was measured by Envision multimode plate reader (PerkinElmer, 2102-0010). IC50 values were determined by fitting the data to the standard 4 parameters with Hill Slope using GraphPad Prism software.
On the technique in general: TR-FRET usually uses a lanthanide donor and a delayed reading to cut background.

The subject of a further test is OVCAR3 p-RB. Nature of the test: pRB ICW assay in OVCAR3 cells. The class given is cell-based. The settings on record: Homo sapiens, OVCAR-3, incubated with compound for 2 hours. The protocol: pRB ICW Assay in OVCAR3 Cells
OVCAR3 cells were maintained in RPMI (Corning, Catalog #: 10-040-CV) supplemented with 10% v/v FBS (Gibco, Catalog #: 26140-079), 1% v/v Penicillin Streptomycin (Gibco, Catalog #15140-122.) OVCAR3 cells grown at log phase were trypsinized, counted, and resuspended in fresh medium to reach a final density of 6.7e4 cells/mL and 75 μL of culture were dispensed into a 384-well plate (Falcon, cat #353962) using Multidrop Combi dispenser (Thermo Scientific). The next day, compounds were dispensed as a 9-point, ½ log serial dilution using a Tecan digital dispenser (D300e), and cells were incubated with compound for 2 hours in a humidified incubator at 37° C. A reference compound at a final concentration of 10 μM was used as a control for maximum inhibition. Each compound was tested in duplicates in each experiment. At the end of the incubation, 25 μL of 16% paraformaldehyde (Electron Microscopy, cat #15710) was slowly added to each well and the plate was incubated at room temperature (RT) for 30 minutes to fix cells. Cells were then permeabilized by incubating with 50 μL/well of wash buffer (lx PBS with 0.1% Triton X-100) 5×5 minutes, followed by 1 hour blocking with 30 μL/well of Odyssey blocking buffer (Li-COR, cat #927-40000), all at RT. Anti-phosphor RB antibody (Cell signaling 8516S) was diluted 1:1000 in Odyssey blocking buffer and 20 μL was added to all wells and incubated overnight in 4° C. with gently rocking. The next day, cells were washed 5×5 min with 50 μL/well of wash buffer, followed with 1 hour incubation with secondary antibody and DRAQ5 diluted in Odyssey blocking buffer (1:500 dilution for secondary antibody and 1:2000 dilution for DRAQ5), 5×5 min washes, and one last wash with water. Plates were dried in 37° C. oven for 5 min and scanned using Li-COR Odyssey CLx imaging system to acquire intensities at 700 and 800 nm channels.

Another test deals with CDK2/Cyclin E2 (Homo sapiens, UniProt P24941). Nature of the test: CDK2/CyclinE2 enzymatic activity assay (TR-FRET). It is filed as biochemical. Particulars: ATP 1 mM final, read-out: CDK2_E1 IC50. Here is the method: CDK2/CyclinE2 Enzymatic Activity Assay
as §1, with “Bio-One). CDK2/Cyclin E2” for “Bio-One). CDK4/Cyclin D1”, “in IC50” for “in IC5”, “complex CDK2/Cyclin E2,” for “complex CDK4/Cyclin D1,”, “mixing CDK2/CyclinE2” for “mixing CDK4/CyclinD1”, “ULight-4E-BP1 (50” for “ULight-4E-BP1 (100”, “ATP (1” for “ATP (2”

T1 sequence (P11802 whole entry): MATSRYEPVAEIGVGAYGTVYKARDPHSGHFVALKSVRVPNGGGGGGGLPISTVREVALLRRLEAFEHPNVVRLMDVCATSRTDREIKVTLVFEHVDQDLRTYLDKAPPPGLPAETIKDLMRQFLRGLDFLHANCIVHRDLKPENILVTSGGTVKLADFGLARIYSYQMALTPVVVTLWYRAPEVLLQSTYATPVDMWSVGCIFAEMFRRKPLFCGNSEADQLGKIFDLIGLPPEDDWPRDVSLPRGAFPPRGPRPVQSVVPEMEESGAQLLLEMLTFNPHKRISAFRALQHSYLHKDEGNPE
T1 sequence (P24385 whole entry partner): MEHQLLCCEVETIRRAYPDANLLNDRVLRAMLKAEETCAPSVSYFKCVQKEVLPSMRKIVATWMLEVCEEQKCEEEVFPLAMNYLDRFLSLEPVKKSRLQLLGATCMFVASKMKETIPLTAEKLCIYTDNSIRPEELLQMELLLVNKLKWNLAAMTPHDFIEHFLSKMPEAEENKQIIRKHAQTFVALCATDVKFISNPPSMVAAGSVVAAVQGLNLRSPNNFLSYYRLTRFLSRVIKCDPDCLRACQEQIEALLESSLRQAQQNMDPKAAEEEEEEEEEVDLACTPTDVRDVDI

With `CS(=O)(=O)N1CCC(Nc2ncc(C(F)(F)F)c(-c3cnc(N4CCCC4)s3)n2)CC1` [Example 1, N-(1-Methylsulfonylpiperidin-4-yl)-4-(2-pyrrolidin-1-yl-1,3-thiazol-5-yl)-5-(trifluoromethyl)pyrimidin-2-amine], the IC50 at CDK4/Cyclin D1 is no more than 100 nM; in the test with OVCAR3 p-RB it was 100 to 1000 nM; at CDK2/Cyclin E2, no more than 100 nM.
As for `CS(=O)(=O)N1CCC(Nc2ncc(C(F)(F)F)c(-c3cnc(C4=CCOCC4)s3)n2)CC1` [Example 2, 4-[2-(3,6-Dihydro-2H-pyran-4-yl)-1,3-thiazol-5-yl]-N-(1-methyl-sulfonylpiperidin-4-yl)-5-(trifluoromethyl)pyrimidin-2-amine], the half-maximal inhibitory concentration (IC50) at CDK4/Cyclin D1 is no more than 100 nM; with OVCAR3 p-RB, 100 to 1000 nM; on CDK2/Cyclin E2, 100 to 1000 nM.
`CS(=O)(=O)N1CCC(Nc2ncc(C(F)(F)F)c(-c3cnc(C4CCOCC4)s3)n2)CC1` [Example 3, N-(1-methylsulfonylpiperidin-4-yl)-4-[2-(oxan-4-yl)-1,3-thiazol-5-yl]-5-(trifluoromethyl)pyrimidin-2-amine]: the half-inhibitory concentration (IC50) is no more than 100 nM on CDK4/Cyclin D1, 100 to 1000 nM in the test with OVCAR3 p-RB and no more than 100 nM at CDK2/Cyclin E2.
On to `CS(=O)(=O)N1CCC(Nc2ncc(C(F)(F)F)c(-c3cnc(C4=CCCC4)s3)n2)CC1` [Example 4, 4-[2-(Cyclopenten-1-yl)-1,3-thiazol-5-yl]-N-(1-methylsulfonylpiperidin-4-yl)-5-(trifluoromethyl)pyrimidin-2-amine], for which the half-maximal inhibitory concentration (IC50) is no more than 100 nM at CDK4/Cyclin D1, greater than 1000 nM in the test on OVCAR3 p-RB and no more than 100 nM on CDK2/Cyclin E2.
For `CS(=O)(=O)N1CCC(Nc2ncc(C(F)(F)F)c(-c3cnc(C4CCCC4)s3)n2)CC1` [Example 5, 4-(2-Cyclopentyl-1,3-thiazol-5-yl)-N-(1-methylsulfonylpiperidin-4-yl)-5-(trifluoromethyl)pyrimidin-2-amine], the concentration for half-maximal inhibition (IC50) on CDK4/Cyclin D1 and at CDK2/Cyclin E2 was no more than 100 nM each time.
Turning to `CS(=O)(=O)N1CCC(Nc2ncc(C(F)(F)F)c(-c3cnc(-c4ccc(CO)cc4)s3)n2)CC1` [Example 6, [4-[5-[2-[(1-Methylsulfonylpiperidin-4-yl)amino]-5-(trifluoromethyl)-pyrimidin-4-yl]-1,3-thiazol-2-yl]phenyl]methanol], the IC50 at CDK4/Cyclin D1 was no more than 100 nM; in the test on OVCAR3 p-RB, 100 to 1000 nM; at CDK2/Cyclin E2 it was no more than 100 nM.
With `Cc1nc(C)c(-c2nc(NC3CCN(S(C)(=O)=O)CC3)ncc2F)s1` [Example 16, 4-(2,4-dimethylthiazol-5-yl)-5-fluoro-N-(1-(methylsulfonyl)piperidin-4-yl)pyrimidin-2-amine], the half-inhibitory concentration (IC50) at CDK4/Cyclin D1 is greater than 1000 nM; at CDK2/Cyclin E2 it was 100 to 1000 nM.
The corresponding values for `Cc1c(-c2ncc(-c3nc(NC4CCN(S(C)(=O)=O)CC4)ncc3C(F)(F)F)s2)cnn1CCO` [Example 18, 2-[5-methyl-4-[5-[2-[(1-methylsulfonylpiperidin-4-yl)amino]-5-(trifluoromethyl)pyrimidin-4-yl]-1,3-thiazol-2-yl]pyrazol-1-yl]ethanol] are 100 to 1000 nM and no more than 100 nM.
As to `CS(=O)(=O)N1CCC(Nc2ncc(C(F)(F)F)c(-c3cnc(-c4ccccc4CO)s3)n2)CC1` [Example 23, [2-[5-[2-[(1-Methylsulfonylpiperidin-4-yl)amino]-5-(trifluoromethyl)pyrimidin-4-yl]-1,3-thiazol-2-yl]phenyl]methanol], at CDK2/Cyclin E2, the IC50 was no more than 100 nM.
Regarding `Cc1ncc(-c2nc(NC3CCN(S(C)(=O)=O)CC3)ncc2C(F)F)s1` [Example 43, 5-(Difluoromethyl)-N-(1-methylsulfonylpiperidin-4-yl)-4-(2-methyl-1,3-thiazol-5-yl)pyrimidin-2-amine], the values for the IC50 on CDK4/Cyclin D1 and at CDK2/Cyclin E2 were 100 to 1000 nM and no more than 100 nM, respectively.
The corresponding values for `CCOc1ncc(-c2nc(NC3CCN(S(C)(=O)=O)CC3)ncc2C(F)F)s1` [Example 49, 5-(Difluoromethyl)-4-(2-ethoxy-1,3-thiazol-5-yl)-N-(1-methylsulfonylpiperidin-4-yl)pyrimidin-2-amine] are 100 to 1000 nM and 100 to 1000 nM.
On the same counts, the results for `COc1ncc(-c2nc(NC3CCN(S(C)(=O)=O)CC3)ncc2C(F)F)s1` [Example 50, 5-(difluoromethyl)-4-(2-methoxy-1,3-thiazol-5-yl)-N-(1-methylsulfonyl-piperidin-4-yl)pyrimidin-2-amine] are 100 to 1000 nM and no more than 100 nM.
As for `CC(C)Oc1ncc(-c2nc(NC3CCN(S(C)(=O)=O)CC3)ncc2C(F)F)s1` [Example 51, 5-(Difluoromethyl)-N-(1-methylsulfonylpiperidin-4-yl)-4-(2-propan-2-yloxy-1,3-thiazol-5-yl)pyrimidin-2-amine], the IC50 at CDK4/Cyclin D1 and at CDK2/Cyclin E2 was no more than 100 nM each time.
Take `COCc1ncc(-c2nc(NC3CCN(S(C)(=O)=O)CC3)ncc2C(F)(F)F)s1` [Example 53, 4-[2-(Methoxymethyl)-1,3-thiazol-5-yl]-N-(1-methylsulfonylpiperidin-4-yl)-5-(trifluoromethyl)pyrimidin-2-amine]: the figures for the IC50 on CDK4/Cyclin D1 and on CDK2/Cyclin E2 were 100 to 1000 nM and no more than 100 nM, respectively.
Take `CCOC(=O)Nc1ncc(-c2nc(NC3CCN(S(C)(=O)=O)CC3)ncc2C(F)(F)F)s1` [Example 55, Ethyl N-[5-[2-[(1-methylsulfonylpiperidin-4-yl)amino]-5-(trifluoromethyl)pyrimidin-4-yl]-1,3-thiazol-2-yl]carbamate]: the half-inhibitory concentration (IC50) is greater than 1000 nM at CDK4/Cyclin D1 and 100 to 1000 nM on CDK2/Cyclin E2.
`CC(C)NC(=O)Nc1ncc(-c2nc(NC3CCN(S(C)(=O)=O)CC3)ncc2C(F)(F)F)s1` [Example 56, 1-[5-[2-[(1-Methylsulfonylpiperidin-4-yl)amino]-5-(trifluoromethyl)pyrimidin-4-yl]-1,3-thiazol-2-yl]-3-propan-2-ylurea]: the figures for the IC50 at CDK4/Cyclin D1 and on CDK2/Cyclin E2 were greater than 1000 nM and 100 to 1000 nM, respectively.
On the same counts, the results for `Cc1ncc(-c2nc(NC3CCN(S(C)(=O)=O)CC3)ncc2C(F)(F)F)o1` [Example 66, 4-(2-methyl-1,3-oxazol-5-yl)-N-(1-methylsulfonylpiperidin-4-yl)-5-(trifluoromethyl)pyrimidin-2-amine] are greater than 1000 nM and 100 to 1000 nM.
